Earlier results, collected in patent publication US9358298B2, “17-hydroxyprogesterone ester containing oral compositions and related methods” (Lipocine Inc., priority 2011, dated 2016).

Assays:
[1] = given by mouth; Saxton et al. 2004, Greene NEJM

solubility in water: < 0.02 µg/mL
Compound: CCCCCC(=O)O[C@]1(C(C)=O)CC[C@H]2[C@@H]3CCC4=CC(=O)CC[C@]4(C)[C@H]3CC[C@@]21C [17-hydroxyprogesterone caproate, 17-alpha-hydroxyprogesterone caproate]
oral activity [1]: no oral activity
